Measured values published in ChEMBL document CHEMBL3611986, “Reversal of P-gp and BCRP-mediated MDR by tariquidar derivatives” (Eur J Med Chem, 2015).
The source made the active and inactive calls. No cut-off for these calls is given here.

Legend:
HCT-116 = assay: Cytotoxicity against human HCT116 cells assessed as cell viability after 48 hrs by MTT assay; type: cell-based; details: HCT-116, 48 h
SW-620 [1] = assay: Cytotoxicity against human SW620 cells assessed as cell viability after 48 hrs by MTT assay; type: cell-based; details: SW-620, 48 h
[2] = Cytotoxicity against human SW620/AD300 cells assessed as cell viability after 48 hrs by MTT assay; type: cell-based; details: SW-620, 48 h
[3] = Cytotoxicity against human CCD-18Co cells assessed as cell viability after 48 hrs by MTT assay; type: cell-based
[4] = Cytotoxicity against human HFE cells assessed as cell viability after 72 hrs by MTT assay; type: cell-based
[5] = target: T1, ATP-dependent translocase ABCB1 (Homo sapiens, UniProt P08183); assay: Inhibition of p-glycoprotein-mediated doxorubicin efflux in human K562/p-gp cells at 1 uM after 1 hr by flow cytometry; type: cell-based
[6] = target: Multidrug resistance-associated protein 1 (Homo sapiens, UniProt P33527); assay: Inhibition of MRP1 (unknown origin)-mediated calcein-AM efflux expressed in HEK293/MRP1 cells at 0.5 uM after 1 hr by flow cytometry; type: cell-based; details: hek293/mrp1, 1 h
K562 [7] = assay: Induction of UIC2 antibody binding to p-glycoprotein in human K562 cells at 0.5 uM preincubated for 10 mins followed by antibody addition measured after 45 mins by flow cytometry relative to tariquidar; type: cell-based
[8] = target: T2, Broad substrate specificity ATP-binding cassette transporter ABCG2 (Homo sapiens, UniProt Q9UNQ0); assay: Induction of 5D3 antibody binding to BCRP in human K562 cells at 0.5 uM preincubated for 10 mins followed by antibody addition measured after 45 mins by flow cytometry relative to tariquidar; type: cell-based; details: k562, 0.75 h
T2 sequence (Q9UNQ0 whole entry): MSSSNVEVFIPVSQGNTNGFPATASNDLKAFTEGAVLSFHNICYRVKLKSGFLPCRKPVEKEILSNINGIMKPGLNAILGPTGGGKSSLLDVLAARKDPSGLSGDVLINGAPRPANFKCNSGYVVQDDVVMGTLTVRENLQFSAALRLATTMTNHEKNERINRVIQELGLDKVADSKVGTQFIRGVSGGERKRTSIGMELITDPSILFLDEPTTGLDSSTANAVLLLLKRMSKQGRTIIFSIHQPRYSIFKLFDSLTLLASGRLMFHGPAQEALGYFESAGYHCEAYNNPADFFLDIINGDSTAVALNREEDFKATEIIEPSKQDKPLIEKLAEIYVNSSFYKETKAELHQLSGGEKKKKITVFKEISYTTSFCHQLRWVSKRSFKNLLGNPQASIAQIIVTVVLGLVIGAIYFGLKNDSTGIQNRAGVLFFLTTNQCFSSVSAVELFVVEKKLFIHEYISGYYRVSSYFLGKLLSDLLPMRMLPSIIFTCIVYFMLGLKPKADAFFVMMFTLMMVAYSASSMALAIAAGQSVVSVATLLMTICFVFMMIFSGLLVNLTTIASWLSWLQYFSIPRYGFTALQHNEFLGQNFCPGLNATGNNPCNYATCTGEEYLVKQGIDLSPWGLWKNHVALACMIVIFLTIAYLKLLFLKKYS

Hepatocyte = assay: Cytotoxicity against rat hepatocytes assessed as cell viability after 72 hrs by MTT assay; type: cell-based; details: for Activity: rat, hepatocytes; for IC50: Rattus norvegicus, Hepatocyte
[9] = target: T1, ATP-dependent translocase ABCB1; assay: Inhibition of p-glycoprotein-mediated rhodamine-123 efflux in human K562/p-gp cells at 0.5 uM after 1 hr by flow cytometry relative to tariquidar; type: cell-based; details: 1 h, 0.5 µM
[10] = target: T1, ATP-dependent translocase ABCB1; assay: Inhibition of p-glycoprotein-mediated rhodamine-123 efflux in human K562/p-gp cells after 1 hr by flow cytometry; type: cell-based
K562 [11] = assay: Effect on rhodamine-123 efflux in wild type human K562 cells at 0.5 uM after 1 hr by flow cytometry; type: ADME, cell-based; details: k562, 1 h
[12] = Potentiation of paclitaxel-induced cytotoxicity against human LCC6 cells at 200 nM after 72 hrs by SRB assay relative to control; type: functional
[13] = target: T1, ATP-dependent translocase ABCB1; assay: Inhibition of p-glycoprotein in human LCC6/MDR cells assessed as increase of paclitaxel-induced cytotoxicity at 200 nM after 72 hrs by SRB assay relative to control; type: cell-based; details: 0.2 µM
[14] = Cytotoxicity against human LCC6 cells at 200 nM after 72 hrs by SRB assay; type: cell-based; details: lcc6, 72 h, 0.2 µM
[15] = Cytotoxicity against human LCC6 cells expressing p-glycoprotein at 200 nM after 72 hrs by SRB assay; type: cell-based; details: lcc6, 72 h, 0.2 µM
Homo sapiens = organism: Homo sapiens; assay: Inhibition of p-glycoprotein (unknown origin) expressed in High five insect cell membranes assessed as ATP hydrolysis after 20 mins by colorimetric ATPase assay
MCF7 [16] = assay: Potentiation of mitoxantrone-induced cytotoxicity against human MCF7 cells at 200 nM after 72 hrs by SRB assay relative to control; type: functional
[17] = target: T2, Broad substrate specificity ATP-binding cassette transporter ABCG2; assay: Inhibition of BCRP in human MCF-7 FLV1000 cells assessed as increase of mitoxantrone-induced cytotoxicity at 200 nM after 72 hrs by SRB assay relative to control; type: cell-based; details: 0.2 µM
HepG2 [18] = assay: Potentiation of doxorubicin-induced cytotoxicity against human HepG2 cells at 200 nM after 72 hrs by SRB assay relative to control; type: functional
[19] = target: T1, ATP-dependent translocase ABCB1; assay: Inhibition of p-glycoprotein in human HepG2 cells assessed as increase of doxorubicin-induced cytotoxicity at 200 nM after 72 hrs by SRB assay relative to control; type: cell-based; details: hepg2, 72 h, 0.2 µM
SW-620 [20] = assay: Potentiation of doxorubicin-induced cytotoxicity against human SW620 cells at 200 nM after 72 hrs by SRB assay relative to control; type: functional
[21] = target: T1, ATP-dependent translocase ABCB1; assay: Inhibition of p-glycoprotein in human SW620/AD300 cells assessed as increase of doxorubicin-induced cytotoxicity at 200 nM after 72 hrs by SRB assay relative to control; type: cell-based; details: sw-620, 72 h, 0.2 µM
SW-620 [22] = assay: Cytotoxicity against human SW620 cells at 200 nM after 72 hrs by SRB assay; type: cell-based; details: sw-620, 72 h, 0.2 µM
[23] = Cytotoxicity against human SW620/AD300 cells expressing p-glycoprotein at 200 nM after 72 hrs by SRB assay; type: cell-based; details: sw-620, 72 h, 0.2 µM
HepG2 [24] = assay: Cytotoxicity against human HepG2 cells at 200 nM after 72 hrs by SRB assay; type: cell-based; details: hepg2, 72 h, 0.2 µM
HepG2 [25] = assay: Cytotoxicity against human HepG2 cells expressing p-glycoprotein at 200 nM after 72 hrs by SRB assay; type: cell-based; details: hepg2, 72 h, 0.2 µM
MCF7 [26] = assay: Cytotoxicity against human MCF7 cells at 200 nM after 72 hrs by SRB assay; type: cell-based; details: mcf7, 72 h, 0.2 µM
[27] = Cytotoxicity against human MCF-7 FLV1000 cells expressing BCRP at 200 nM after 72 hrs by SRB assay; type: ADME, cell-based; details: mcf-7 flv1000, 72 h, 0.2 µM
BCRP (ABCG2) = target: T3, BCRP (ABCG2) (Homo sapiens, UniProt Q9UNQ0); assay: Inhibition of BCRP-mediated pheophorbide-A efflux in human K562/BCRP cells at 0.5 uM after 1 hr by flow cytometry; type: cell-based; details: K562/BCRP cells, probe pheophorbide-A
T3 sequence (Q9UNQ0 whole entry): T2 sequence (Q9UNQ0 whole entry)

[28] = target: T2, Broad substrate specificity ATP-binding cassette transporter ABCG2; assay: Induction of BCRP (unknown origin) expressed in High five insect cell membranes assessed as ATP hydrolysis after 10 mins by colorimetric ATPase assay

Chain of Multidrug resistance-associated protein 1 (P33527 whole entry): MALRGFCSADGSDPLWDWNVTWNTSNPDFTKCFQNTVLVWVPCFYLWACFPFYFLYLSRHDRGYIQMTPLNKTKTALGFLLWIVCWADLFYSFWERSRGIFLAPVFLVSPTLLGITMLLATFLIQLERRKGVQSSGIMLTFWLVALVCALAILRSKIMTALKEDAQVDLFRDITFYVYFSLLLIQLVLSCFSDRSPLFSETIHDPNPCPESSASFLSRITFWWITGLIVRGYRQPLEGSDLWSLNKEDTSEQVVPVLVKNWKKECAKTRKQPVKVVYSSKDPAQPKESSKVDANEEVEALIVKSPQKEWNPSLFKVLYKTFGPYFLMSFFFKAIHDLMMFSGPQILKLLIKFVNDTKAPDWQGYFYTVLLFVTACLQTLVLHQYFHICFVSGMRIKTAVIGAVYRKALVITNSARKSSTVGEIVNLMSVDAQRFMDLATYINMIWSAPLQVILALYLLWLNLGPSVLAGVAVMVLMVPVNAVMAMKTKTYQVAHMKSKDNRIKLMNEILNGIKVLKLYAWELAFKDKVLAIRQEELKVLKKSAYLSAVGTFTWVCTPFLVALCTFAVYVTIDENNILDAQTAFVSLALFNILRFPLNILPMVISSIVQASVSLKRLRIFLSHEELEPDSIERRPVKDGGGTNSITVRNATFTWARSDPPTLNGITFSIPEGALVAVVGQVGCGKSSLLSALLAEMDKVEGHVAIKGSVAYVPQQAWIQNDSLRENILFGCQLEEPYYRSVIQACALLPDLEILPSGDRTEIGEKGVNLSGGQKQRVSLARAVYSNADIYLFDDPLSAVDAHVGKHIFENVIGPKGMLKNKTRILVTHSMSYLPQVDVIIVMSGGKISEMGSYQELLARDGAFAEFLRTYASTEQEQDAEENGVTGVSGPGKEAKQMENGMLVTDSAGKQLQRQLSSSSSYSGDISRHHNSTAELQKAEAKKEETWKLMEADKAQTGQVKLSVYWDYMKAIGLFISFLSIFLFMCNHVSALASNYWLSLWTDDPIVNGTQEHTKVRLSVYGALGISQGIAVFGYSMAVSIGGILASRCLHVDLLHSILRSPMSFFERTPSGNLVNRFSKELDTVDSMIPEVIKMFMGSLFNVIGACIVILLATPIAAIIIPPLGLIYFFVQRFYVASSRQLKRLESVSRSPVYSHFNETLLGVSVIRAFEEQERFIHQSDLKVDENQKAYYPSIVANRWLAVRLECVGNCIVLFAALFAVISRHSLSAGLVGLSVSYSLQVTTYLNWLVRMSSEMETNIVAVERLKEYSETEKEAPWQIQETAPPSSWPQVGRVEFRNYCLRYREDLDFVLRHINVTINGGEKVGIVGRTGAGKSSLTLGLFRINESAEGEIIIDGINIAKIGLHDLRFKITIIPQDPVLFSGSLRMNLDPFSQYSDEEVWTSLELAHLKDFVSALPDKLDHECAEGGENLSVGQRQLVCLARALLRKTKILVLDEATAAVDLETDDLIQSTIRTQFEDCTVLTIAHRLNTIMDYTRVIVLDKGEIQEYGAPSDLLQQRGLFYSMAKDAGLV
T1 sequence (P08183 whole entry): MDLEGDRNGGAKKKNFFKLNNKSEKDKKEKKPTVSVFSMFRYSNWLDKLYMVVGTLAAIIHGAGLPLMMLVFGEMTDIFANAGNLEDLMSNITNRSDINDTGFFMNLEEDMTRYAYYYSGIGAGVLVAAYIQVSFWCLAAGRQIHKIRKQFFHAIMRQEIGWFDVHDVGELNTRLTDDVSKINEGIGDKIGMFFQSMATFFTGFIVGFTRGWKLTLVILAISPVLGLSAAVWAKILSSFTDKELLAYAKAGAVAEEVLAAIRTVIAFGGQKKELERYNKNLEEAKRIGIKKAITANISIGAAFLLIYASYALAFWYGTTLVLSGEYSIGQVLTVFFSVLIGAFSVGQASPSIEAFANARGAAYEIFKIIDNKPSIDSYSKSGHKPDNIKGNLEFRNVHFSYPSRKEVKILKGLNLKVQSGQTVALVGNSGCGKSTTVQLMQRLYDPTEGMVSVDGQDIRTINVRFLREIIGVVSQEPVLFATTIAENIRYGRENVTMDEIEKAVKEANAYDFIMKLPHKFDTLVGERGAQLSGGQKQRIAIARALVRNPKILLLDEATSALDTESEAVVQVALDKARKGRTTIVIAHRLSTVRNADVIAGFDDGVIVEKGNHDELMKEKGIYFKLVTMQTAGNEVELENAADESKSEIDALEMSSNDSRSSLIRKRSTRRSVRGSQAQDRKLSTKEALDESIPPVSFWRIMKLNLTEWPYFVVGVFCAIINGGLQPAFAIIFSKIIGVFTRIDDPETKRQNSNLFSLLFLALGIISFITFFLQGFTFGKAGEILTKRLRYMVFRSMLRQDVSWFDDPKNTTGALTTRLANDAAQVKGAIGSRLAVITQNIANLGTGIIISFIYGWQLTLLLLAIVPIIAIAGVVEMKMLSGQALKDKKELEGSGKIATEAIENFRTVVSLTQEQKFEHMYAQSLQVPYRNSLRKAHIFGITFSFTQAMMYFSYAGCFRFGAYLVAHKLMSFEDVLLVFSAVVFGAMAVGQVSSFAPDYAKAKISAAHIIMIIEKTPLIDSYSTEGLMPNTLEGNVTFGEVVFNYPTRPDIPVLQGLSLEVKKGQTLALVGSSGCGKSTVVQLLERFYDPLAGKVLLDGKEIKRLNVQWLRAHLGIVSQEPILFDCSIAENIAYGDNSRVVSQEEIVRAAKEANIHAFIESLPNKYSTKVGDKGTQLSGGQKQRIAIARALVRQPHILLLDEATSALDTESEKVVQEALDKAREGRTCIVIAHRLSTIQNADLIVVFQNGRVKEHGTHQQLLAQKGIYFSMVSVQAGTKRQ

| Compound | IC50 (HCT-116) [µM] | IC50 (SW-620 [1]) [µM] | IC50 [2] [µM] | IC50 [3] [µM] | IC50 [4] [µM] | inhibition (INH) [5] | inhibition (INH) [6] | Activity (K562 [7]) | Activity [8] | inhibition (INH) [9] | inhibition (INH) [10] | Activity (K562 [11]) | fold change (FC) [12] | fold change (FC) [13] | Activity [14] | Activity [15] | inhibition (Homo sapiens) | IC50 (Hepatocyte) [µM] | fold change (FC) (MCF7 [16]) | fold change (FC) [17] | further results |
| --- | --- | --- | --- | --- | --- | --- | --- | --- | --- | --- | --- | --- | --- | --- | --- | --- | --- | --- | --- | --- | --- |
| COc1cc2c(cc1OC)CN(CCc1ccc(NC(=O)c3ccccc3NS(=O)(=O)c3ccc(C(C)(C)C)cc3)cc1)CC2 | > 100 | > 100 | > 100 | > 100 | > 100 | Active | Not Active | inactive | Not Active |  |  |  |  |  |  |  |  |  |  |  |  |
| COc1cc2c(cc1OC)CN(CCc1ccc(NC(=O)c3ccccc3N(S(=O)(=O)c3ccc(Br)cc3)S(=O)(=O)c3ccc(Br)cc3)cc1)CC2 | > 100 | > 100 | > 100 | > 100 | > 5 | Active | Not Active | 47% |  | Active | Dose-dependent effect | Non-toxic | 1.3 | 36 | Non-toxic | Non-toxic | Dose-dependent effect |  |  |  | Activity (Hepatocyte): Non-toxic |
| COc1cc2c(cc1OC)CN(CCc1ccc(NC(=O)c3cc(OC)c(OC)cc3NC(=O)c3cnc4ccccc4c3)cc1)CC2 [TARIQUIDAR] | 12.5 | 25 | 25 | 25 | 1.28 |  | Not Active |  |  |  |  |  | 1.1 | 1.9 | Non-toxic | Non-toxic |  | 25 | 0.8 | 3.7 | fold change (FC) (HepG2 [18]): 0.23; fold change (FC) [19]: 0.32; fold change (FC) (SW-620 [20]): 0.57; fold change (FC) [21]: 1.85; Activity (SW-620 [22]): Non-toxic; Activity [23]: Non-toxic; Activity (HepG2 [24]): Non-toxic; Activity (HepG2 [25]): Non-toxic; Activity (MCF7 [26]): Non-toxic; Activity [27]: Non-toxic |
| COc1cc2c(cc1OC)CN(CCc1ccc(NC(=O)c3ccccc3NC(=O)c3ccc(F)cc3[N+](=O)[O-])cc1)CC2 | > 100 | > 100 | > 100 | > 100 | > 10 |  | Not Active | 57.3% | 119.1% | Active | Dose-dependent effect | Non-toxic | 1.1 | 35 | Non-toxic | Non-toxic | Dose-dependent effect | 100 | 1.7 | 46 | inhibition at 1 h, 0.5 µM (BCRP (ABCG2)): 60%; fold change (FC) (HepG2 [18]): 0.76; fold change (FC) [19]: 0.36; fold change (FC) (SW-620 [20]): 1.6; fold change (FC) [21]: 3.62; Activity (SW-620 [22]): Non-toxic; Activity [23]: Non-toxic; Activity (HepG2 [24]): Non-toxic; Activity (HepG2 [25]): Non-toxic; Activity (MCF7 [26]): Non-toxic; Activity [27]: Non-toxic; Activity [28]: Active |
| COc1cc2c(cc1OC)CN(CCc1ccc(NC(=O)c3ccccc3N(S(=O)(=O)c3ccccc3)S(=O)(=O)c3ccccc3)cc1)CC2 | > 100 | > 100 | > 100 | > 100 | > 5 | Active | Not Active |  |  | Active | Dose-dependent effect | Non-toxic |  |  |  |  |  |  |  |  | Activity (Hepatocyte): Non-toxic |
| COc1cc2c(cc1OC)CN(CCc1ccc(NC(=O)c3ccccc3NC(=O)/C=C/c3ccccc3)cc1)CC2 | > 100 | > 100 | > 100 | > 100 | > 20 |  | Not Active | 46.3% | 118.6% | Active | Dose-dependent effect | Non-toxic | 1.6 | 33 | Non-toxic | Non-toxic | Dose-dependent effect | 100 | 1.5 | 64 | inhibition at 1 h, 0.5 µM (BCRP (ABCG2)): 60%; Activity (MCF7 [26]): Non-toxic; Activity [27]: Non-toxic; Activity [28]: Active |
